Like-named read-outs stand apart in the source and are kept apart here. Bounds are passed on as bounds.

This test concerns the target T1, F508delCFTR (Homo sapiens, UniProt P13569, DEL508-508).
T1 construct: expressed in transfected cells; host or cells: CFBE41o- (human lung derived epithelial cell line), doxycycline-inducible expression
Description: Cell Surface Expression-Horse Radish Peroxidase (CSE-HRP) assay. The class given is cell-based. To be noted: CFBE41o-F508delCFTR-HRP cells; for Maximum % activity (with co-corrector): with co-corrector (2 μM); for Maximum % activity (with co-corrector) / Maximum % activity (without co-corrector): normalized to on-plate positive control, highest concentration 20 μM. The gist of the method:
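CFBE41o- cells expressed F508delCFTR with HRP in the fourth exofacial loop, induced by 0.5 μg/mL doxycycline for 72 h at 37 °C. Compounds alone or with 2 μM co-corrector ran 18–24 h at 33 °C, 8-point 3-fold from 20 μM. Washed-cell luminol luminescence was normalized to DMSO and positive control, fitted sigmoidally for EC50 (three plates).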

[1] abbreviates: test compound without co-corrector, 18-24 hours at 33° C., read-out: EC50 (without co-corrector).
[2] abbreviates: with co-corrector (2 μM of 3-[(2R,4R)-4-({[1-(2,2-difluoro-1,3-benzodioxol-5-yl)cyclopropyl]carbonyl}amino)-7-methoxy-3,4-dihydro-2H-chromen-2-yl]benzoic acid), read-out: EC50 (with co-corrector).

T1 sequence (P13569 with tags, fused parts or gaps DEL508-508): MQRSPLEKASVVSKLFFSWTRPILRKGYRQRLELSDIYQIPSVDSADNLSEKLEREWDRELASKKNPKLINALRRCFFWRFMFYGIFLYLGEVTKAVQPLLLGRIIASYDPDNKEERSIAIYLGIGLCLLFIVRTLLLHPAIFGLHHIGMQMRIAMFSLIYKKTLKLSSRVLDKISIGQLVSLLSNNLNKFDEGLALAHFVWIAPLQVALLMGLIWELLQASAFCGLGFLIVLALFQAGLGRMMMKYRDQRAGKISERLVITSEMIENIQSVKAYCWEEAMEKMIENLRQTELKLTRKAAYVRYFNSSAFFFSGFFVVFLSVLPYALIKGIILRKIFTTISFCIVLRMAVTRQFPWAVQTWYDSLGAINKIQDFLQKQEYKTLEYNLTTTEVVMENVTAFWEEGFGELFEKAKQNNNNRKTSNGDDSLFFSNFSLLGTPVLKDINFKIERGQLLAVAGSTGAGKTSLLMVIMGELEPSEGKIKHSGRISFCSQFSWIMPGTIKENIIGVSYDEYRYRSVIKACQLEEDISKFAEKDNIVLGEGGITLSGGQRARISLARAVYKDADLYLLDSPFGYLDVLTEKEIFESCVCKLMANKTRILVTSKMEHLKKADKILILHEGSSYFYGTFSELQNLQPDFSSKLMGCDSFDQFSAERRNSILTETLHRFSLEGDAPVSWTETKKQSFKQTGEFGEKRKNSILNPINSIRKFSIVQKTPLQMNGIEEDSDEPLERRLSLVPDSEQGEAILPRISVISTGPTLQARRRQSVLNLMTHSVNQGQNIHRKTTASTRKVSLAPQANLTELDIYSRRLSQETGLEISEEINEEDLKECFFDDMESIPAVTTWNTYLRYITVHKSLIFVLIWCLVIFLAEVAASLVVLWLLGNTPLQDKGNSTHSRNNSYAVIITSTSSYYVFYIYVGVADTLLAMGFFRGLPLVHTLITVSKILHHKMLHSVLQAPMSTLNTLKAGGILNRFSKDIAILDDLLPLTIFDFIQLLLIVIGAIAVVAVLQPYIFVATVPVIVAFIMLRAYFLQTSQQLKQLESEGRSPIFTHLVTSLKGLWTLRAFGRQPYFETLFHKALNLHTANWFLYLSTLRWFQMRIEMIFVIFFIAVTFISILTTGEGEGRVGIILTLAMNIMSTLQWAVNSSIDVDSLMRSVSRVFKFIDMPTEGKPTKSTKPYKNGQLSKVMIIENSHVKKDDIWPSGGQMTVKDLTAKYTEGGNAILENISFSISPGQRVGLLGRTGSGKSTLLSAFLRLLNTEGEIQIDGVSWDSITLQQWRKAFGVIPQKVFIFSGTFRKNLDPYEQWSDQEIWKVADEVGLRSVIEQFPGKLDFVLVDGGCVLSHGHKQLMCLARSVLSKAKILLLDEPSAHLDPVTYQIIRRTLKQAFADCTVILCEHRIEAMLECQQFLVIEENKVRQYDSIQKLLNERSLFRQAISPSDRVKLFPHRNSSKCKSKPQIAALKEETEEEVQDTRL

`COc1ncc(C2CCC2)cc1CO[C@H]1[C@H](C(C)(C)C)[C@@H](C(=O)O)N(C(=O)C2CCCCC2)[C@H]1c1ccccc1C(C)C` [Example 295, (2S,3R,4S,5S)-3-tert-butyl-4-[(5-cyclobutyl-2-methoxypyridin-3-yl)methoxy]-1-(cyclohexanecarbonyl)-5-[2-(propan-2-yl)phenyl]pyrrolidine-2-carboxylic acid]: the “Maximum % activity (with co-corrector)” value is “+++ (≥350)” and the “Maximum % activity (without co-corrector)” value is on record as “+++ (≥200)”. Besides, the EC50 under setting [1] is under 1000 nM. The 50% effective concentration (EC50) under setting [2] is under 1000 nM.
Turning to `CC(C)Oc1ncccc1[C@H]1[C@@H](OCc2cc3cc(C4CCC4)ccc3o2)[C@H](C(C)(C)C)[C@@H](C(=O)O)N1C(=O)[C@@H]1CCCCO1` [Example 296, (2S,3R,4S,5S)-3-tert-butyl-4-[(5-cyclobutyl-1-benzofuran-2-yl)methoxy]-1-[(2S)-oxane-2-carbonyl]-5-{2-[(propan-2-yl)oxy]pyridin-3-yl}pyrrolidine-2-carboxylic acid], the “Maximum % activity (with co-corrector)” value was “++ (≥150 and <350)”; the “Maximum % activity (without co-corrector)” value is on record as “+ (<100)”. Moreover, the concentration giving a half-maximal response (EC50) under setting [1] fell in the range of 1000 to 10000 nM. The EC50 under setting [2] was under 1000 nM.
In the case of “(2S,3R,4S,5S)-4-[(5-bromo-2-methoxypyridin-3-yl)methoxy]-3-tert-butyl-5-(2-methylphenyl)-1-[(2S)-oxane-2-carbonyl]pyrrolidine-2-carboxylic acid [Example 186]”, the “Maximum % activity (with co-corrector)” value is on record as “+++ (≥350)” and the “Maximum % activity (without co-corrector)” value is “+++ (≥200)”. Besides, the EC50 under setting [1] lay within 1000 to 10000 nM. Also, the EC50 under setting [2] is under 1000 nM.
Take “(2S,3R,4S,5S)-5-(2-bromophenyl)-3-tert-butyl-4-[(5-cyclobutyl-2-methoxypyridin-3-yl)methoxy]-1-[(2S)-oxane-2-carbonyl]pyrrolidine-2-carboxylic acid [Example 177]”: the “Maximum % activity (with co-corrector)” value is listed as “+++ (≥350)”; the “Maximum % activity (without co-corrector)” value is “++ (≥100 and <200)”. For the same compound, the concentration for a half-maximal effect (EC50) under setting [1] fell in the range of 1000 to 10000 nM. The EC50 under setting [2] was 1000 to 10000 nM.

The term EC50 denotes the concentration that produces a half-maximal response.

Source of the values: patent US10399940B2, “Substituted pyrrolidines and methods of use” (AbbVie S.à.r.l., priority 2016, dated 2019).
